In PubChem BioAssay AID1963841 (Molecular Pharmacology Branch, DTP, NCI, 2024):

System: 439559-082-T-J2-PDC spheroid viability
Assay: Anticancer human tumor 439559-082-T-J2-PDC patient-derived colon adenocarcinoma cell line growth inhibition [POLQ]
Conditions: spheroids with HUVEC and MSC; for IC50: curve of first compound; for viability, T/C: stronger effect = lower value
Procedure, shortened: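 Growth inhibition in 3D: complex spheroids (tumor PDC, HUVEC, MSC) treated with POLQ inhibitor combinations; where Cmax unknown, highest tested concentration 10 microM, except SN-38 at 1 microM.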

[1] = second compound 0.0316 µM, first compound 0.0316 µM
[2] = second compound 0.0316 µM, first compound 0.1 µM
[3] = second compound 0.0316 µM, first compound 0.316 µM
[4] = second compound 0.0316 µM, first compound 1 µM
[5] = second compound 0.0316 µM, first compound 3.16 µM
[6] = second compound 0.0316 µM, first compound 10 µM
[7] = second compound 0.1 µM, first compound 0.0316 µM
[8] = second compound 0.1 µM, first compound 0.1 µM
[9] = second compound 0.1 µM, first compound 0.316 µM
[10] = second compound 0.1 µM, first compound 1 µM
[11] = second compound 0.1 µM, first compound 3.16 µM
[12] = second compound 0.1 µM, first compound 10 µM
[13] = second compound 0.316 µM, first compound 0.0316 µM
[14] = second compound 0.316 µM, first compound 0.1 µM
[15] = second compound 0.316 µM, first compound 0.316 µM
[16] = second compound 0.316 µM, first compound 1 µM
[17] = second compound 0.316 µM, first compound 3.16 µM
[18] = second compound 0.316 µM, first compound 10 µM
[19] = second compound 1 µM, first compound 0.0316 µM
[20] = second compound 1 µM, first compound 0.1 µM
[21] = second compound 1 µM, first compound 0.316 µM
[22] = second compound 1 µM, first compound 1 µM
[23] = second compound 1 µM, first compound 3.16 µM
[24] = second compound 1 µM, first compound 10 µM
[25] = second compound 3.16 µM, first compound 0.0316 µM
[26] = second compound 3.16 µM, first compound 0.1 µM
[27] = second compound 3.16 µM, first compound 0.316 µM
[28] = second compound 3.16 µM, first compound 1 µM
[29] = second compound 3.16 µM, first compound 3.16 µM
[30] = second compound 3.16 µM, first compound 10 µM
[31] = second compound 10 µM, first compound 0.0316 µM
[32] = second compound 10 µM, first compound 0.1 µM
[33] = second compound 10 µM, first compound 0.316 µM
[34] = second compound 10 µM, first compound 1 µM
[35] = second compound 10 µM, first compound 3.16 µM
[36] = second compound 10 µM, first compound 10 µM
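Also: spheroids exposed to compounds for seven days before readout.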
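For viability, T/C in this document: 100% = DMSO vehicle control viability.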

SMILES: CC1COCCN1c1cc(C2(O)CC3CCC(C2)O3)c2cnn(-c3ccn[nH]3)c2n1 (stereo unspecified) + COC1C(OC(N)=O)C(O)C(Oc2ccc3c(O)c(NC(=O)c4ccc(O)c(CC=C(C)C)c4)c(=O)oc3c2C)OC1(C)C
- IC50 (second compound 0.0316 µM): 2.58 µM
- IC50 (second compound 0.1 µM): 2.62 µM
- IC50 (second compound 0.316 µM): 2.08 µM
- IC50 (second compound 1 µM): 1.92 µM
- IC50 (second compound 3.16 µM): 1.84 µM
- IC50 (second compound 10 µM): 1.25 µM
- viability, T/C [1]: 97%
- viability, T/C [2]: 89.6%
- viability, T/C [3]: 67.5%
- viability, T/C [4]: 58.4%
- viability, T/C [5]: 48.7%
- viability, T/C [6]: 45.1%
- viability, T/C [7]: 95.1%
- viability, T/C [8]: 86.9%
- viability, T/C [9]: 68.4%
- viability, T/C [10]: 58.3%
- viability, T/C [11]: 46.9%
- viability, T/C [12]: 46.8%
- viability, T/C [13]: 99%
- viability, T/C [14]: 83.1%
- viability, T/C [15]: 69.9%
- viability, T/C [16]: 56.8%
- viability, T/C [17]: 42.2%
- viability, T/C [18]: 46.3%
- viability, T/C [19]: 93.6%
- viability, T/C [20]: 89.5%
- viability, T/C [21]: 66.5%
- viability, T/C [22]: 56.1%
- viability, T/C [23]: 48.2%
- viability, T/C [24]: 42.4%
- viability, T/C [25]: 89.2%
- viability, T/C [26]: 85%
- viability, T/C [27]: 65.3%
- viability, T/C [28]: 54.3%
- viability, T/C [29]: 47.9%
- viability, T/C [30]: 45.5%
- viability, T/C [31]: 89.1%
- viability, T/C [32]: 87.4%
- viability, T/C [33]: 66.4%
- viability, T/C [34]: 52.5%
- viability, T/C [35]: 46.7%
- viability, T/C [36]: 44.8%

SMILES: COc1cc2cc(C(=O)CCC(=O)O)sc2cc1OC + Nc1ccc(C#CCN(C(=O)Cc2ncc(C(F)(F)F)cc2C(F)(F)F)c2ccc(F)cc2)nn1
- IC50 (second compound 0.0316 µM): > 10 µM
- IC50 (second compound 0.1 µM): > 10 µM
- IC50 (second compound 0.316 µM): > 10 µM
- IC50 (second compound 1 µM): > 10 µM
- IC50 (second compound 3.16 µM): > 10 µM
- IC50 (second compound 10 µM): > 10 µM
- viability, T/C [1]: 99.2%
- viability, T/C [2]: 99.3%
- viability, T/C [3]: 96.7%
- viability, T/C [4]: 95.8%
- viability, T/C [5]: 105%
- viability, T/C [6]: 97.5%
- viability, T/C [7]: 95%
- viability, T/C [8]: 107%
- viability, T/C [9]: 93.1%
- viability, T/C [10]: 99.2%
- viability, T/C [11]: 93%
- viability, T/C [12]: 98.7%
- viability, T/C [13]: 94.5%
- viability, T/C [14]: 101%
- viability, T/C [15]: 97.4%
- viability, T/C [16]: 93.4%
- viability, T/C [17]: 98.1%
- viability, T/C [18]: 91.8%
- viability, T/C [19]: 96.2%
- viability, T/C [20]: 103%
- viability, T/C [21]: 90.3%
- viability, T/C [22]: 93.6%
- viability, T/C [23]: 99.3%
- viability, T/C [24]: 88.4%
- viability, T/C [25]: 90.5%
- viability, T/C [26]: 88.8%
- viability, T/C [27]: 98.6%
- viability, T/C [28]: 91.3%
- viability, T/C [29]: 97%
- viability, T/C [30]: 102%
- viability, T/C [31]: 107%
- viability, T/C [32]: 101%
- viability, T/C [33]: 98.2%
- viability, T/C [34]: 98.8%
- viability, T/C [35]: 96.4%
- viability, T/C [36]: 82.6%

SMILES: CCc1cc2c(N3CCc4c(cc(Cn5ccnc5)cc4-c4cn(C)nc4C(F)(F)F)C3=O)ccnc2c(OC)n1 + Cc1cccc(N(C)C(=O)C2C(O)CCN2c2nc(C)cc(C(F)(F)F)c2C#N)c1
- IC50 (second compound 0.0316 µM): > 10 µM
- IC50 (second compound 0.1 µM): > 10 µM
- IC50 (second compound 0.316 µM): > 10 µM
- IC50 (second compound 1 µM): > 10 µM
- IC50 (second compound 3.16 µM): > 10 µM
- IC50 (second compound 10 µM): > 10 µM
- viability, T/C [1]: 98%
- viability, T/C [2]: 95.5%
- viability, T/C [3]: 101%
- viability, T/C [4]: 97.1%
- viability, T/C [5]: 93.1%
- viability, T/C [6]: 87%
- viability, T/C [7]: 126%
- viability, T/C [8]: 96.4%
- viability, T/C [9]: 90.6%
- viability, T/C [10]: 92.5%
- viability, T/C [11]: 95.2%
- viability, T/C [12]: 89.4%
- viability, T/C [13]: 105%
- viability, T/C [14]: 109%
- viability, T/C [15]: 102%
- viability, T/C [16]: 98%
- viability, T/C [17]: 98.8%
- viability, T/C [18]: 83.7%
- viability, T/C [19]: 101%
- viability, T/C [20]: 104%
- viability, T/C [21]: 85.1%
- viability, T/C [22]: 93.7%
- viability, T/C [23]: 93%
- viability, T/C [24]: 90.2%
- viability, T/C [25]: 115%
- viability, T/C [26]: 106%
- viability, T/C [27]: 83.3%
- viability, T/C [28]: 92.2%
- viability, T/C [29]: 103%
- viability, T/C [30]: 96.1%
- viability, T/C [31]: 94.9%
- viability, T/C [32]: 87%
- viability, T/C [33]: 99.5%
- viability, T/C [34]: 89.3%
- viability, T/C [35]: 91.7%
- viability, T/C [36]: 77.3%
